Like-named read-outs stand apart in the source and are kept apart here.
Assays:
Format in all cases: in vivo
Rhizoctonia solani [1] = assay: Control of Rhizoctonia solani disease in tobacco (Rs-Nt); settings: 1 μM spraying every 24 hours for one week, water control 87
Experimental: (§1) In order to compare the effect of the compounds of formula I to V on the control of diseases in different plants, experiments were conducted in tobacco, tomato and Arabidopsis thaliana plants inoculated with Phytophthora parasitica, Rhizoctonia solani, Alternaria solani, Nocardia sp and Botrytis cinerea, respectively. The compounds were applied by spraying, at a concentration of 1 μM, every 24 hours for one week. The plant mortality rate was determined for the disease produced by Phytophthora parasitica, Rhizoctonia solani and Nocardia sp, while the percentage of leaves with symptoms was determined for the infection by Alternaria solani. In the case of plants affected by Botrytis cinerea, the lesion diameter was measured. […] Each treatment included fifty plants. As control, plants treated with water were studied. The plants of each treatment were previously inoculated with the indicated pathogens, according to different inoculation protocols (Frontiers in Plant Science 3: 268, 1-6, 2012), and later they were treated with the compounds.

Nocardia sp = assay: Control of Nocardia sp disease in tobacco (N-Nt); settings: 1 μM spraying every 24 hours for one week, water control 58
Experimental: as §1

Alternaria solani = assay: Control of Alternaria solani disease in tomato (As-SI); settings: 1 μM spraying every 24 hours for one week, water control 68
Experimental: as §1

Botrytis cinerea [2] = assay: Control of Botrytis cinerea disease in Arabidopsis (Bc-At); settings: 1 μM spraying every 24 hours for one week, water control 8.7
Experimental: as §1

Botrytis cinerea [3] = assay: Control of Botrytis cinerea disease in tomato (Bc-SI); settings: 1 μM spraying every 24 hours for one week, water control 7.4
Experimental: as §1

Radopholus similis = assay: Nematode control, nodules per plant: Radopholus similis; settings: 1 μM foliar application every 5 days, evaluation 35 days after, control 45
Experimental: (§2) The solutions of the compounds were prepared in ethanol and diluted in water, up to a concentration of 1 μM for a foliar application. Applications were conducted every 5 days, spraying only the leafs with each compound. Ten plants were used for each treatment and the final evaluation was performed 35 days after, by quantifying the number of nodules per plant.

Meloidogyne incognita = assay: Nematode control, nodules per plant: Meloidogyne incognita; settings: 1 μM foliar application every 5 days, evaluation 35 days after, control 34
Experimental: as §2

[4] = test system: Candidatus 'Liberibacter asiaticus'; settings: spraying every 15 days, 12 months after treatment, Citrus sinensis with HLB
Rhizoctonia solani [5] = assay: Control of Rhizoctonia solani disease in tomato (Rs-SI); settings: 1 μM spraying every 24 hours for one week, water control 96
Experimental: as §1

Phytophthora parasitica = assay: Control of Phytophthora parasitica disease in tobacco (Pp-Nt); settings: 1 μM spraying every 24 hours for one week, water control 91
Experimental: as §1

Pratylenchus coffeae = assay: Nematode control, nodules per plant: Pratylenchus coffeae; settings: 1 μM foliar application every 5 days, evaluation 35 days after, control 42
Experimental: as §2

Botrytis cinerea [6] = assay: Control of Botrytis cinerea disease in tobacco (Bc-Nt); settings: 1 μM spraying every 24 hours for one week, water control 6.7
Experimental: as §1

SMILES | Rs-Nt: percentage of mortality (Rhizoctonia solani [1]) [%] | N-Nt: percentage of mortality (Nocardia sp) [%] | As-SI: percentage of leaves with the disease symptoms (Alternaria solani) [%] | Bc-At: mean of the diameter of the lesion (Botrytis cinerea [2]) [mm] | Bc-SI: mean of the diameter of the lesion (Botrytis cinerea [3]) [mm] | Rs: number of nodules per plant (Radopholus similis) | Mi: number of nodules per plant (Meloidogyne incognita) | Titers of the bacterium ([4]; 0.001 μM) [copies per reaction] | Titers of the bacterium ([4]; 0.01 μM) [copies per reaction] | Titers of the bacterium ([4]; 1 μM) [copies per reaction] | Titers of the bacterium ([4]; 5 μM) [copies per reaction] | Titers of the bacterium ([4]; 10 μM) [copies per reaction] | Rs-SI: percentage of mortality (Rhizoctonia solani [5]) [%] | Pp-Nt: percentage of mortality (Phytophthora parasitica) [%] | Pc: number of nodules per plant (Pratylenchus coffeae) | Bc-Nt: mean of the diameter of the lesion (Botrytis cinerea [6]) [mm]
Cc1coc2cc3oc(=O)c(CCC(=O)NCC(O)CO)cc3cc12 (stereo not drawn) [IA, N-(2,3-dihydroxypropyl)-3-{6-methyl-2-oxo-2H-furo[3,2-g]chromen-3-yl}propanamide] | 2 | 1 | 1 | 1.2 | 0.8 | 12 | 23 | 524 | 12 | 0 | 52 | 9652 | 3 | 1 | 18 | 0.3
O=C(CCc1cc2cc3c(C4CCCCC4)coc3cc2oc1=O)NCC(O)CO (stereo not drawn) [IC, 3-{6-cyclohexyl-2-oxo-2H-furo[3,2-g]chromen-3-yl}-N-(2,3-dihydroxypropyl)propanamide] | 4 | 2 | 3 | 0.5 | 0.8 | 13 | 4 | 432 | 9 | 0 | 43 | 9632 | 2 | 1 | 22 | 0.9
O=C(CCc1cc2cc3c(C4CCCC4)coc3cc2oc1=O)NCC(O)CO (stereo not drawn) [ID, 3-{6-cyclopentyl-2-oxo-2H-furo[3,2-g]chromen-3-yl}-N-(2,3-dihydroxypropyl)propanamide] | 0 | 1 | 8 | 1.5 | 2.5 | 0 | 0 | 123 | 0 | 0 | 123 | 5489 | 2 | 0 | 11 | 1.5
O=C(CCc1cc2cc3c(-c4ccc5ccccc5c4)coc3cc2oc1=O)NCC(O)CO (stereo not drawn) [IE, N-(2,3-dihydroxypropyl)-3-[6-(naphthalen-2-yl)-2-oxo-2H-furo[3,2-g]chromen-3-yl]propanamide] | 0 | 0 | 7 | 2.4 | 0.8 | 0 | 0 | 587 | 0 | 0 | 87 | 6574 | 0 | 0 | 0 | 1.5
O=C(CCc1cc2cc3ccoc3cc2oc1=O)NCC(O)CO (stereo not drawn) [IF, N-(2,3-dihydroxypropyl)-3-{2-oxo-2H-furo[3,2-g]chromen-3-yl}propanamide] | 0 | 0 | 5 | 0.7 | 1.2 | 0 | 0 | 985 | 0 | 0 | 98 | 6325 | 1 | 0 | 0 | 0.9
O=C(CCc1cc2cc3c(-n4cccc4)coc3cc2oc1=O)NCC(O)CO (stereo not drawn) [IG, N-(2,3-dihydroxypropyl)-3-[2-oxo-6-(1H-pyrrol-1-yl)-2H-furo[3,2-g]chromen-3-yl]propanamide] | 0 | 0 | 7 | 1.2 | 0.8 | 31 | 0 | 657 | 11 | 1 | 65 | 5423 | 1 | 3 | 0 | 0.3
Cc1coc2cc3oc(=O)c(CCC(=O)NCC(O)CO)c(C)c3cc12 (stereo not drawn) [IH, N-(2,3-dihydroxypropyl)-3-{4,6-dimethyl-2-oxo-2H-furo[3,2-g]chromen-3-yl}propanamide] | 2 | 1 | 1 | 1.1 | 1.6 | 19 | 21 | 658 | 8 | 12 | 68 | 4569 | 3 | 1 | 11 | 2.0
Cc1c(CCC(=O)NCC(O)CO)c(=O)oc2cc3occ(-c4ccccc4)c3cc12 (stereo not drawn) [II, N-(2,3-dihydroxypropyl)-3-{4-methyl-2-oxo-6-phenyl-2H-furo[3,2-g]chromen-3-yl}propanamide] | 3 | 1 | 2 | 0.5 | 0.8 | 2 | 3 | 756 | 14 | 14 | 76 | 8420 | 2 | 2 | 13 | 0.9
CC1=COC2c3cc(CC(=O)NCC(O)CO)c(=O)oc3C=CC12 (stereo not drawn) [IIA, N-(2,3-dihydroxypropyl)-2-{5-methyl-11-oxo-3,10-dioxatricyclo[7.4.0.0^{2,6}]trideca-1(9),4,7,12-tetraen-12-yl}acetamide] | 2 | 1 | 1 | 0.5 | 0.8 | 17 | 2 | 598 | 14 | 0 | 98 | 9845 | 3 | 1 | 14 | 0.9

From patent publication US11013235B2 (priority 2015, dated 2021)
